# “Also recorded” adds a separate entry of the source.
# Legend:
# [1] = Salt integrity and aggregation in cell media (mass spectrometry, electron microscopy, UV-Vis); type: physicochemical; settings: high resolution mass spectrometry, electron microscopy, UV-Vis spectroscopy
# Text: FIGS. 7A-7C. […] Organic salts were first dissolved in DMSO and then diluted in water, forming nanoparticles. […] Combinations of H- and J-aggregation of organic salts can be seen by blue-shifted peaks (lower wavelength) and red-shifted peaks (higher wavelength), respectively. The nanoparticles with small hard anions redissolve in cell media likely due to sterics. […] This is achieved by cation-anion pairs of luminescent organic salts that can be modulated to be either non-toxic for enhanced imaging, or phototoxic for improved PDT. […] IR polymethine cyanine dyes, which have been used as effective theranostics are described. […] This is thought to occur through a mechanism mitigated by tumor vascularization, increased retention in cancer cells, and mitochondrial depolarization. Once in the cell, they accumulate in the mitochondria and lysosomes, where irradiation induces generation of cytotoxic oxygen species. A strategy is described for preventing or inhibiting salt dissociation in cells: aggregates are formed via introduction of the salt into an aqueous media by a solvent vehicle, forming particles with diameters of about 5 nm in size with no precipitation observed. […] This is confirmed by high resolution mass spectrometry, electron microscopy, and UV-Vis spectroscopy. […] Normalized absorption data are sown in FIGS. 7A, 7B, and 7C. This is likely due to steric effects, where if the counterion radius is too small it is not able to protect the nanoparticle stability. This can be characterized by the volume-averaged effective spherical radius of the counterions, where the cutoff is at about 0.275 nm.
# mitochondrial superoxide = experiment: MitoSOX measurement of mitochondrial superoxide; type: cell-based, human; settings: A549 cells treated 4 days at phototoxic concentrations; with or without light
# Text: FIG. 22. Luminescent organic salts generate mitochondrial ROS. […] MitoSOX is used to measure mitochondrial superoxide, and H2DCFDA for general cytoplasmic ROS in A549 cell treated with organic salts at indicated phototoxic concentrations for 4 days.
# Photoactive agents accumulate in the mitochondria of cancer cells and generate reactive oxygen species (ROS) with light exposure, depolarizing the mitochondrial membrane potential to cause cell death. Small molecule protective agents that quench ROS have been used to decrease their phototoxicity. However, the exact type of ROS generated by each luminescent agent remains unclear. Photo-induced ROS include singlet oxygen, superoxide radical anion, hydrogen peroxide, hydroxyl radical and others (see FIG. 21). Superoxide is a highly reactive and biologically toxic species deployed in nature to kill invading organisms. It is often formed as a byproduct of mitochondrial respiration but is typically quenched by the highly efficient superoxide dismutase. Hydroxyl radicals are also highly reactive, damaging nearly all forms of biological molecules. Unlike superoxide radical, the hydroxyl radical cannot be easily quenched naturally via enzymes, and endogenous antioxidants are typically required. Singlet oxygen is the excited state of the common triplet oxygen (O2 ground state) and is highly reactive towards organic compounds. Singlet oxygen can be eliminated in mammalian systems by antioxidants. A range of nitroxy radicals can subsequently stem from superoxide (peroxynitrite) or peroxide (nitrogen dioxide) species. […] Each luminescent cation-anion pair generates specific ROS resonant with its own energy level, and cell types can be targeted by generating the key sensitizing ROS. For example, it is expected that CyFPhB is phototoxic (see FIGS. 11A and 11B and 12A and 12B) by generating reactive oxygen species, which can be resonant with its molecular orbital energy levels (FIG. 21). […] No cytoplasmic ROS is detected using general cytoplasmic ROS probe H2DCFDA. […]
# [2] = Nanoparticle aggregation size from SEM images; type: physicochemical; settings: no observable precipitation
# Text: FIG. 6. is a graph showing exemplary nanoparticle aggregation size distribution measured from SEM images (inset, scale bar=100 nm) of CyTPFB. Average aggregate size is 5.6±1.8 nm with no observable precipitation. […] This is achieved by cation-anion pairs of luminescent organic salts that can be modulated to be either non-toxic for enhanced imaging, or phototoxic for improved PDT. […] IR polymethine cyanine dyes, which have been used as effective theranostics are described. […] This is thought to occur through a mechanism mitigated by tumor vascularization, increased retention in cancer cells, and mitochondrial depolarization. Once in the cell, they accumulate in the mitochondria and lysosomes, where irradiation induces generation of cytotoxic oxygen species. A strategy is described for preventing or inhibiting salt dissociation in cells: aggregates are formed via introduction of the salt into an aqueous media by a solvent vehicle, forming particles with diameters of about 5 nm in size with no precipitation observed. […] This is confirmed by high resolution mass spectrometry, electron microscopy, and UV-Vis spectroscopy. […] Normalized absorption data are sown in FIGS. 7A, 7B, and 7C. This is likely due to steric effects, where if the counterion radius is too small it is not able to protect the nanoparticle stability. […]
smiles,measurement,setting,value
CCN1C(=CC=C2CCCC(C=CC3=[N+](CC)c4ccc5ccccc5c4C3(C)C)=C2Cl)C(C)(C)c2c1ccc1ccccc21.Fc1c(F)c(F)c([B-](c2c(F)c(F)c(F)c(F)c2F)(c2c(F)c(F)c(F)c(F)c2F)c2c(F)c(F)c(F)c(F)c2F)c(F)c1F [CyTPFB],Integrity of salt pairing in cellular environments,[1],maintained in cellular environments
same,"Mitochondrial superoxide / ROS generation (MitoSOX), in words",mitochondrial superoxide,generating minimal ROS even with light at high concentrations; also recorded: generating minimal superoxide even with light
same,Average aggregate size,[2],5.6±1.8 nm

# Reference: patent US12478677B2, “Tunable luminescent organic salts for enhanced imaging and photodynamic therapy” (BOARD OF TRUSTEES OF MICHIGAN STATE UNIVERSITY, priority 2017, dated 2025)
